Source: patent publication US20240182445A1 (ONO PHARMACEUTICAL CO., LTD., priority 2019, published 2024)

Target: T1, human TREK-1 (Homo sapiens, UniProt O95069)
T1 construct: expressed in transfected cells
T1 sequence (O95069 1-426): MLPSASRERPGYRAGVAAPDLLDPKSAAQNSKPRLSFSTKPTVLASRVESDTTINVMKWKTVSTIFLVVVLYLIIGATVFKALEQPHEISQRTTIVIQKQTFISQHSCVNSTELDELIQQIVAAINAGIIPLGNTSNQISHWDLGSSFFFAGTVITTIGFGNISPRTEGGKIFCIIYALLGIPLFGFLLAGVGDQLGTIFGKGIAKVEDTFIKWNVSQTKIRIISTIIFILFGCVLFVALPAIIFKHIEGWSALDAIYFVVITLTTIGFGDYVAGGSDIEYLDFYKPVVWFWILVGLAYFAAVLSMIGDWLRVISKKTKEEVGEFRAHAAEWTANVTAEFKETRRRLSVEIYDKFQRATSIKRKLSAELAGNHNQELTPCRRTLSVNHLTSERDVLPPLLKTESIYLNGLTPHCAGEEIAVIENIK
Assay: TREK-1 Thallium (Tl+) flux assay, Method 1
Format: cell-based
Conditions: TREK-1 Thallium (Tl+) flux assay; values without footnote *12 are Method 1
Experimental: The term “thallium flux assay” herein refers to a fluorescence-based assay used to monitor the activity of TREK channels. Thallium is a congener of potassium that readily fluxes through the pore of TREK channels. Thallium flux is measured using a commercially available, thallium-sensitive fluorescent dye called Thallos. The detail method is described below.
CHO-K1 cells stably expressing human TREK-1 were plated in 384-well plates, cultured overnight, loaded with Thallos dye the following day. Test compounds or control compound (tert-butyl (3-((4-(benzyloxy)-2-methylphenyl)carbamoyl)-4-chlorophenyl)carbamate) or 0.3% DMSO (vehicle control) which were prepared on separate plates were added to the cell plates and incubated for 10 min, and then the cells were treated with thallium stimulus buffer to initiate thallium flux. To measure the efficacy and potency of test compounds, the change in fluorescence intensity (ΔRatio) and % inhibition were calculated using the following equations:
ΔRatio=(fluorescence intensity at 25 seconds after thallium addition)/(average of fluorescent intensity before thallium addition)

**Q.** With CC(=O)N[C@H]1CC[C@H](n2ncc(Cl)c2C(=O)Nc2ncc(C#Cc3ccccc3)cc2C)CC1 [Compound 47, 1-(trans-4-acetamidocyclohexyl)-4-chloro-N-(3-methyl-5-(phenylethynyl)pyridin-2-yl)-1H-pyrazole-5-carboxamide] as the compound, how does the IC50 read?
**A.** 130 nM

**Q.** CC(=O)N1CC[C@H](Cn2ncc(Cl)c2C(=O)Nc2ncc(C#Cc3ccccc3)cc2F)[C@H](F)C1 [Compound 48, 1-(((3S,4R)-1-acetyl-3-fluoropiperidin-4-yl)methyl)-4-chloro-N-(3-fluoro-5-(phenylethynyl)pyridin-2-yl)-1H-pyrazole-5-carboxamide] was tested. Which IC50 did it give?
**A.** 130 nM

**Q.** For Cc1cc(C#Cc2ccccc2)cnc1NC(=O)c1c(Cl)cnn1CC1(C#N)CCN(C(=O)C(C)C)CC1 [Compound 49, 4-chloro-1-((4-cyano-1-isobutyrylpiperidin-4-yl)methyl)-N-(3-methyl-5-(phenylethynyl)pyridin-2-yl)-1H-pyrazole-5-carboxamide], which IC50 is on record?
**A.** 130 nM

**Q.** With O=C(Nc1ncc(C#Cc2cccc(F)c2)cc1F)c1c(Cl)cnn1CC1CCOCC1 [Compound 50, 4-chloro-N-(3-fluoro-5-((3-fluorophenyl)ethynyl)pyridin-2-yl)-1-((tetrahydro-2H-pyran-4-yl)methyl)-1H-pyrazole-5-carboxamide] as the compound, how does the IC50 read?
**A.** 140 nM

**Q.** How did the IC50 turn out when O=C(Nc1ncc(C#Cc2ccccc2)cc1F)c1c(Cl)cnn1C1CCOCC1 [Compound 51, 4-chloro-N-(3-fluoro-5-(phenylethynyl)pyridin-2-yl)-1-(tetrahydro-2H-pyran-4-yl)-1H-pyrazole-5-carboxamide] was run?
**A.** 140 nM

**Q.** For Cc1cc(C#Cc2ccccc2)cnc1NC(=O)c1c(Cl)cnn1CC1CCN(C(=O)C2CC2)CC1 [Compound 52, 4-chloro-1-((1-(cyclopropanecarbonyl)piperidin-4-yl)methyl)-N-(3-methyl-5-(phenylethynyl)pyridin-2-yl)-1H-pyrazole-5-carboxamide], which IC50 is on record?
**A.** 140 nM

**Q.** How did the IC50 turn out when Cc1cc(C#Cc2ccccc2)cnc1NC(=O)c1c(Cl)cnn1CC1CCN(C(=O)C(C)C)CC1 [Compound 53, 4-chloro-1-((1-isobutyrylpiperidin-4-yl)methyl)-N-(3-methyl-5-(phenylethnyl)pyridin-2-yl)-1H-pyrazole-5-carboxamide] was run?
**A.** 140 nM

**Q.** With O=C(Nc1ncc(C#Cc2ccccc2)cc1F)c1c(Cl)cnn1C1CCN(C(=O)C(F)(F)F)CC1 [Compound 54, 4-chloro-N-(3-fluoro-5-(phenylethynyl)pyridin-2-yl)-1-(1-(2,2,2-trifluoroacetyl)piperidin-4-yl)-1H-pyrazole-5-carboxamide] as the compound, how does the IC50 read?
**A.** 140 nM

**Q.** How did the IC50 turn out when O=C(Nc1ncc(C#Cc2ccccc2)cc1F)c1c(Cl)cnn1C1CCN(C(=O)CC(F)(F)F)CC1 [Compound 55, 4-chloro-N-(3-fluoro-5-(phenylethynyl)pyridin-2-yl)-1-(1-(3,3,3-trifluoropropanoyl)piperidin-4-yl)-1H-pyrazole-5-carboxamide] was run?
**A.** 140 nM

**Q.** Which IC50 does the source give for O=C(Nc1ncc(C#Cc2ccccc2)cc1F)c1c(Cl)cnn1CCC1CCN(C(=O)C2CC2)CC1 [Compound 56, 4-chloro-1-(2-(1-(cyclopropanecarbonyl)piperidin-4-yl)ethyl)-N-(3-fluoro-5-(phenylethynyl)pyridin-2-yl)-1H-pyrazole-5-carboxamide] here?
**A.** 140 nM

**Q.** With Cc1cc(C#Cc2cccs2)cnc1NC(=O)c1c(Cl)cnn1CC1CCN(C(=O)C2CC2)CC1 [Compound 57, 4-chloro-1-((1-(cyclopropanecarbonyl)piperidin-4-yl)methyl)-N-(3-methyl-5-(thiophen-2-ylethynyl)pyridin-2-yl)-1H-pyrazole-5-carboxamide] as the compound, how does the IC50 read?
**A.** 140 nM

**Q.** CC(C)C(=O)N1CC[C@H](Cn2ncc(Cl)c2C(=O)Nc2ncc(C#Cc3ccccc3)cc2F)[C@H](F)C1 [Compound 58, 4-chloro-1-(((3S,4R)-3-fluoro-1-isobutyrylpiperidin-4-yl)methyl)-N-(3-fluoro-5-(phenylethynyl)pyridin-2-yl)-1H-pyrazole-5-carboxamide] was tested. Which IC50 did it give?
**A.** 140 nM

**Q.** How did the IC50 turn out when N#CCCCn1ncc(Cl)c1C(=O)Nc1ncc(C#Cc2ccccc2)cc1F [Compound 59, 4-chloro-1-(3-cyanopropyl)-N-(3-fluoro-5-(phenylethynyl)pyridin-2-yl)-1H-pyrazole-5-carboxamide] was run?
**A.** 150 nM

**Q.** For O=C(Nc1ncc(C#Cc2ccccc2)cc1F)c1c(Cl)cnn1C[C@H]1CCOC1 [Compound 60, (R)-4-chloro-N-(3-fluoro-5-(phenylethynyl)pyridin-2-yl)-1-((tetrahydrofuran-3-yl)methyl)-1H-pyrazole-5-carboxamide], which IC50 is on record?
**A.** 150 nM

**Q.** How did the IC50 turn out when CC(=O)N1CCC(n2ncc(Cl)c2C(=O)Nc2ncc(C#Cc3ccccc3)cc2C)CC1C (stereo not shown) [Compound 61, 1-(1-acetyl-2-methylpiperidin-4-yl)-4-chloro-N-(3-methyl-5-(phenylethynyl)pyridin-2-yl)-1H-pyrazole-5-carboxamide] was run?
**A.** 150 nM

**Q.** With CC(=O)N1CCC(n2ncc(Cl)c2C(=O)Nc2ncc(C#Cc3ccc(F)cc3)cc2C)CC1C (stereo not shown) [Compound 62, 1-(1-acetyl-2-methylpiperidin-4-yl)-4-chloro-N-(5-((4-fluorophenyl)ethynyl)-3-methylpyridin-2-yl)-1H-pyrazole-5-carboxamide] as the compound, how does the IC50 read?
**A.** 150 nM

**Q.** For Cc1cc(C#Cc2cccs2)cnc1NC(=O)c1c(Cl)cnn1C1CCN(C(=O)C2CC2)CC1 [Compound 63, 4-chloro-1-(1-(cyclopropanecarbonyl)piperidin-4-yl)-N-(3-methyl-5-(thiophen-2-ylethynyl)pyridin-2-yl)-1H-pyrazole-5-carboxamide], which IC50 is on record?
**A.** 150 nM

**Q.** Which IC50 does the source give for CC(=O)N[C@H]1C[C@@H](n2ncc(Cl)c2C(=O)Nc2ncc(C#Cc3ccccc3)cc2C)C1 [Compound 64, 1-(cis-3-acetamidocyclobutyl)-4-chloro-N-(3-methyl-5-(phenylethynyl)pyridin-2-yl)-1H-pyrazole-5-carboxamide] here?
**A.** 150 nM

**Q.** Cc1cc(C#Cc2ccc(F)cc2)cnc1NC(=O)c1c(Cl)cnn1C1CCN(C(=O)C2COCCO2)CC1 (stereo not shown) [Compound 65, 1-(1-(1,4-dioxane-2-carbonyl)piperidin-4-yl)-4-chloro-N-(5-((4-fluorophenyl)ethynyl)-3-methylpyridin-2-yl)-1H-pyrazole-5-carboxamide] was tested. Which IC50 did it give?
**A.** 150 nM

**Q.** With CCC(=O)N1CCC(n2ncc(Cl)c2C(=O)Nc2ncc(C#Cc3ccc(F)cc3)cc2C)CC1 [Compound 66, 4-chloro-N-(5-((4-fluorophenyl)ethynyl)-3-methylpyridin-2-yl)-1-(1-propionylpiperidin-4-yl)-1H-pyrazole-5-carboxamide] as the compound, how does the IC50 read?
**A.** 150 nM

**Q.** How did the IC50 turn out when CCC(=O)N1CCC(n2ncc(Cl)c2C(=O)Nc2ncc(C#Cc3cccs3)cc2F)CC1 [Compound 67, 4-chloro-N-(3-fluoro-5-(thiophen-2-ylethynyl)pyridin-2-yl)-1-(1-propionylpiperidin-4-yl)-1H-pyrazole-5-carboxamide] was run?
**A.** 150 nM

**Q.** O=C(Nc1ncc(C#Cc2ccccc2)cc1F)c1c(Cl)cnn1CC1CCOCC1 [Compound 68, 4-chloro-N-(3-fluoro-5-(phenylethynyl)pyridin-2-yl)-1-((tetrahydro-2H-pyran-4-yl)methyl)-1H-pyrazole-5-carboxamide] was tested. Which IC50 did it give?
**A.** 160 nM

**Q.** For O=C(Nc1ncc(C#Cc2cccs2)cc1F)c1c(Cl)cnn1CC1CCOCC1 [Compound 69, 4-chloro-N-(3-fluoro-5-(thiophen-2-ylethynyl)pyridin-2-yl)-1-((tetrahydro-2H-pyran-4-yl)methyl)-1H-pyrazole-5-carboxamide], which IC50 is on record?
**A.** 160 nM

**Q.** CS(=O)(=O)N1CCC(n2ncc(Cl)c2C(=O)Nc2ncc(C#Cc3ccccc3)cc2F)CC1 [Compound 70, 4-chloro-N-(3-fluoro-5-(phenylethynyl)pyridin-2-yl)-1-(1-(methylsulfonyl)piperidin-4-yl)-1H-pyrazole-5-carboxamide] was tested. Which IC50 did it give?
**A.** 160 nM

**Q.** For CC(=O)N1CCC(n2ncc(Cl)c2C(=O)Nc2ncc(C#Cc3cccc(F)c3)cc2C)CC1 [Compound 71, 1-(1-acetylpiperidin-4-yl)-4-chloro-N-(5-((3-fluorophenyl)ethynyl)-3-methylpyridin-2-yl)-1H-pyrazole-5-carboxamide], which IC50 is on record?
**A.** 160 nM

**Q.** With CC(=O)N1CCC(n2ncc(Cl)c2C(=O)Nc2ncc(C#Cc3cccc(F)c3)cc2C)CC1C (stereo not shown) [Compound 72, 1-(1-acetyl-2-methylpiperidin-4-yl)-4-chloro-N-(5-((3-fluorophenyl)ethynyl)-3-methylpyridin-2-yl)-1H-pyrazole-5-carboxamide] as the compound, how does the IC50 read?
**A.** 160 nM

**Q.** How did the IC50 turn out when CCNC(=O)N1CCC(n2ncc(Cl)c2C(=O)Nc2ncc(C#Cc3cccs3)cc2C)CC1 [Compound 73, 4-(4-chloro-5-((3-methyl-5-(thiophen-2-ylethynyl)pyridin-2-yl)carbamoyl)-1H-pyrazol-1-yl)-N-ethylpiperidine-1-carboxamide] was run?
**A.** 160 nM

**Q.** With CCNC(=O)N1C[C@H]2C[C@H](n3ncc(Cl)c3C(=O)Nc3ncc(C#Cc4cccs4)cc3C)C[C@H]2C1 [Compound 74, (3aR,5s,6aS)-5-[4-chloro-5-({3-methyl-5-[(thiophen-2-yl)ethynyl]pyridin-2-yl}carbamoyl)-1H-pyrazol-1-yl]-N-ethylhexahydrocyclopenta[c]pyrrole-2(1H)-carboxamide] as the compound, how does the IC50 read?
**A.** 160 nM
